Counter-ions that a name gives are not always drawn.
Tests used:
[1] = Body weight and animal number of carrier mice, A549 xenograft test; format: in vivo, BALB/c immunodeficient nude mice
Source text: (§1) To evaluate the in vivo anticancer efficacy of COMPOUND O, A549 human non-small cell lung cancer xenograft models in immunodeficient nude mice was used. The cell line and mice were maintained in the Pharmacology Lab of ACEA Bio (Hangzhou) CO., Ltd. The BALB/c immunodeficient nude mice were purchased from Shanghai SLAC Laboratory Animal, certification number: SCXKA (Shanghai) 2007-0005. The mouse weight was between 21±1 g. Only female mice were used in this study. The numbers of animals tested were as follow: 7-8 for each dose group, 6 for positive control group and 7 for negative control group.
(§2) Test Control. For negative control, each mouse was administered orally with the solvent only having the same volume and same concentration as those used in COMPOUND O test, 120 mg/kg once every other day (qod) for 25 days. For positive control, an oral anticancer compound, Etoposide was administered orally at 30 mg/kg qod for 25 days.
(§3) Preparation an Administration of Test Compounds. COMPOUND O was dissolved in 25% phospholipid (S75) and 75% polyvinylpyrrolidone (PL-PVP) then further diluted to 8 mg/ml in 0.9% NaCl aqueous solution. Each mouse was administered orally with the compound solution. Different dosages of COMPOUND O (120 mg/kg qod and 160 mg/kg q2*2 (dosing for 2 consecutive days then off for 2 consecutive days) were used in the study.
(§4) All used materials including animal food, animal cage, supporting materials and apparatus contacted by animals, were high-pressure sterilized. Nude mice were maintained in laminar flow shelves under SPF condition. After tumor transplantation, mouse weight and tumor size in each compound dosage group were dynamically monitored and plotted. The tumor size was determined by measuring the major axis (a) and minor axis (b) of the tumor, and tumor volume was calculated according to the formula (2) in Example 1.

[2] = Body weight and animal number of carrier mice, MKN45 xenograft test; format: in vivo, BALB/c immunodeficient nude mice; conditions: for Animal No. end: 7 at beginning
Procedure: as §1, with “MKN45” for “A549”, “gastric-intestinal” for “non-small cell lung”, “tested. All the mouse models are” for “used. The cell line and mice were”, “19±1” for “between 21±1”, “7” for “7-8”, “7” for “6”
Test Control. For negative control, each mouse was administered orally with the solvent only having the same volume and same concentration as those used in COMPOUND O test, 120 mg/kg once every other day (qod) for 18 days. […]
Preparation an Administration of Test Compounds. COMPOUND O was dissolved in 25% phospholipid (S75) and 75% polyvinylpyrrolidone (PL-PVP) then further diluted to 8 mg/ml in 0.9% NaCl aqueous solution. Different dosages of COMPOUND O between 120 mg/kg qod (once every other day) and 160 mg/kg q3d (once every 3 days) were used in the study.
as §4, with “formula: […]” for “formula (2) in Example 1.”

[3] = system: A549 human non-small cell lung cancer xenograft; assay: In vivo antitumor efficacy, A549 xenograft; design: species or system BALB/c immunodeficient nude mice
Source text: as §1, §2, §3
Preparation of tumor cells for transplantation and determination of compound efficacy. To prepare the cancer cells for A549 human non-small cell lung cancer xenograft model, the log phase growing cell in the flask were trypsinized and cells were re-suspended in PBS (pH 7.2) at 2.5×10^7 cells/ml. The cell suspension (5×10^6 cells) was subcutaneously injected into the auxiliary region (right-side) of each mouse. After the inoculated cancer cells grew to a tumor of certain size (50-60 mm^3) in the nude mice (about 15 days post inoculation), the mice were randomized into different dosing groups and subjected to compound treatment. Between 3-4 weeks after the first dosing, mice were sacrificed and the transplanted tumors were removed from experimental mice. Each removed solid tumor was weighed; the tumor inhibition rate in each dosage group was calculated according to equation (1) in Example 1.
as §4

[4] = system: KB cells (parental cervical cancer cell line); assay: Inhibition of cell proliferation, xCelligence cell index; format: cell-based; conditions: Homo sapiens, 72 hr post compound treatment, read-out: calculated IC50
Source text: The biological activity of compounds disclosed herein was monitored and profiled using the Real-Time Cell Electronic Sensing (RT-CES®) system from ACEA Biosciences, Inc. The RT-CES system utilizes cell-substrate impedance technology to monitor cellular behavior inside tissue culture wells in a microtiter plate format. The technology features in the integration of molecular and cell biology with microelectronics and is based on the electronic detection of biological assay process.
For measurement of cell-substrate or cell-electrode impedance using RT-CES technology, microelectrodes having appropriate geometries are fabricated onto the bottom surfaces of microtiter plate or similar device, facing into the wells. Cells are introduced into the wells of the devices, and make contact to and attach to the electrode surfaces. The presence, absence or change of properties of cells affects the electronic and ionic passage on the electrode sensor surfaces. Measuring the impedance between or among electrodes provides important information about biological status of cells present on the sensors. When there are changes to the biological status of the cells analogue electronic readout signals are measured automatically and in real time, and are converted to digital signals for processing and for analysis. In a RT-CES system, a cell index (arbitrary representation of change in impedance) is automatically derived and provided based on measured electrode impedance values. The cell index obtained for a given well reflects: 1) how many cells are attached to the electrode surfaces in this well; 2) how well cells are attached to the electrode surfaces in this well. […]
To quantify cell status based on the measured cell-electrode impedance, a parameter termed Cell Index is derived. Cell Index is a quantitative measure of the status of the cells in an electrode-containing well. […]
The parental cervical cancer cell line, KB cells were first tested. […] The cell status was monitored prior to and after the compound addition using xCelligence system (Roche). […]

[5] = system: A549 human lung cancer cells; assay: Mitotic arrest, phosphohistone H3 staining (mitotic index); format: cell-based; conditions: 33 nM
Source text: Microtubules are extremely important in the process of mitosis, during which the duplicated chromosomes of a cell are separated into two identical sets before cleavage of the cell into two daughter cells. Compounds which target microtubules such as paclitaxel and vinblastine suppress the microtubule dynamics and block the process of mitosis. As consequence, cells will be arrested at G2/M phase. To test if COMPOUND O influences the process of mitosis in cancer cell dividing, A549 human lung cancer cells were treated with 33 nM of COMPOUND O and paclitaxel, or 0.2% DMSO that served as negative control. The treated cells were stained with an antibody against phosphohistone H3, a marker for cells undergoing mitosis and mitotic arrest. […] It was 44±8%, 45±3% and 3±1% for paclitaxel, COMPOUND O and DMSO treated A549, respectively.

COc1cc([C@@H]2c3cc4c(cc3[C@@H](O[C@@H]3O[C@@H]5CO[C@@H](C)O[C@H]5[C@H](O)[C@H]3O)[C@H]3COC(=O)[C@H]23)OCO4)cc(OC)c1O [Etoposide, reference compound]
Animal weight (g) Beginning ([1]; 30 mg/kg ig × 13 qod): 21.30 g
Animal weight (g) end ([1]; 30 mg/kg ig × 13 qod): 18.18 g
Body weight of mice (g) 1 day ([1]; 30 mg/kg ig × 13 qod): 21.30 ± 0.70 g
Body weight of mice (g) 4 day ([1]; 30 mg/kg ig × 13 qod): 19.38 ± 2.22 g
Body weight of mice (g) 8 day ([1]; 30 mg/kg ig × 13 qod): 20.53 ± 1.26 g
Body weight of mice (g) 11 day ([1]; 30 mg/kg ig × 13 qod): 19.62 ± 1.15 g
Body weight of mice (g) 15 day ([1]; 30 mg/kg ig × 13 qod): 19.63 ± 1.63 g
Body weight of mice (g) 18 day ([1]; 30 mg/kg ig × 13 qod): 19.48 ± 2.01 g
Body weight of mice (g) 22 day ([1]; 30 mg/kg ig × 13 qod): 19.10 ± 2.57 g
Body weight of mice (g) 25 day ([1]; 30 mg/kg ig × 13 qod): 18.18 ± 1.86 g
Animal No. end ([1]; 30 mg/kg ig × 13 qod, 6 at beginning): 6/6
Animal weight (g) Beginning ([2]; 50 mg/kg ig × 6 q3d): 18.9 g
Animal weight (g) end ([2]; 50 mg/kg ig × 6 q3d): 16.9 g
Body weight of mice (g) 1 day ([2]; 50 mg/kg ig × 6 q3d): 18.94 ± 0.92 g
Body weight of mice (g) 4 day ([2]; 50 mg/kg ig × 6 q3d): 19.57 ± 1.16 g
Body weight of mice (g) 8 day ([2]; 50 mg/kg ig × 6 q3d): 17.17 ± 0.85 g
Body weight of mice (g) 11 day ([2]; 50 mg/kg ig × 6 q3d): 17.26 ± 1.24 g
Body weight of mice (g) 16 day ([2]; 50 mg/kg ig × 6 q3d): 16.94 ± 0.91 g
Body weight of mice (g) 18 day ([2]; 50 mg/kg ig × 6 q3d): 16.93 ± 0.75 g
Animal No. end ([2]; 50 mg/kg ig × 6 q3d): 7/7
TV inhibition rate % T/C ([3]; 30 mg/kg ig × 13 qod): 40.0%
Tumor volume (mm^3) End ([3]; 30 mg/kg ig × 13 qod): 243 ± 121 mm^3
Tumor volume (mm^3) Start ([3]; 30 mg/kg ig × 13 qod): 57.42 ± 23.5 mm^3
Tumor weight (g) x ± SD ([3]; 30 mg/kg ig × 13 qod): 0.27 ± 0.15 g
Tumor inhibition rate % ([3]; 30 mg/kg ig × 13 qod, by tumor weight): 59.9%

CC(=O)O[C@H]1C(=O)[C@@]2(C)[C@H]([C@H](OC(=O)c3ccccc3)[C@]3(O)C[C@H](OC(=O)[C@H](O)[C@@H](NC(=O)c4ccccc4)c4ccccc4)C(C)=C1C3(C)C)[C@]1(OC(C)=O)CO[C@@H]1C[C@@H]2O [paclitaxel]
IC50 [4]: 7.19 nM
mitotic index [5]: 44±8%

CCc1ccc(Nc2nc(-c3c(C)nc4sccn34)cs2)cc1 [COMPOUND O, 2-(4-ethylphenyl)amino-4-(6-methylimidazo[2,1-b]thiazol-5-yl)-thiazole monohydrobromide]
IC50 [4]: 33.1 nM
Animal weight (g) Beginning ([1]; 120 mg/kg ig × 14 qod): 20.77 g
Animal weight (g) end ([1]; 120 mg/kg ig × 14 qod): 16.94 g
Body weight of mice (g) 1 day ([1]; 120 mg/kg ig × 14 qod): 20.77 ± 0.68 g
Body weight of mice (g) 4 day ([1]; 120 mg/kg ig × 14 qod): 20.27 ± 0.83 g
Body weight of mice (g) 8 day ([1]; 120 mg/kg ig × 14 qod): 19.57 ± 1.09 g
Body weight of mice (g) 11 day ([1]; 120 mg/kg ig × 14 qod): 18.20 ± 0.59 g
Body weight of mice (g) 15 day ([1]; 120 mg/kg ig × 14 qod): 17.90 ± 0.61 g
Body weight of mice (g) 18 day ([1]; 120 mg/kg ig × 14 qod): 17.90 ± 1.09 g
Body weight of mice (g) 22 day ([1]; 120 mg/kg ig × 14 qod): 17.21 ± 1.20 g
Body weight of mice (g) 25 day ([1]; 120 mg/kg ig × 14 qod): 17.00 ± 1.29 g
Animal No. end ([1]; 120 mg/kg ig × 14 qod, 7 at beginning): 7/7
Animal weight (g) Beginning ([1]; 160 mg/kg ig × 11 q2*2): 21.69 g
Animal weight (g) end ([1]; 160 mg/kg ig × 11 q2*2): 17.97 g
Body weight of mice (g) 1 day ([1]; 160 mg/kg ig × 11 q2*2): 21.69 ± 0.66 g
Body weight of mice (g) 4 day ([1]; 160 mg/kg ig × 11 q2*2): 21.20 ± 0.79 g
Body weight of mice (g) 8 day ([1]; 160 mg/kg ig × 11 q2*2): 19.00 ± 1.48 g
Body weight of mice (g) 11 day ([1]; 160 mg/kg ig × 11 q2*2): 17.78 ± 2.11 g
Body weight of mice (g) 15 day ([1]; 160 mg/kg ig × 11 q2*2): 17.43 ± 1.86 g
Body weight of mice (g) 18 day ([1]; 160 mg/kg ig × 11 q2*2): 18.43 ± 0.90 g
Body weight of mice (g) 22 day ([1]; 160 mg/kg ig × 11 q2*2): 18.70 ± 1.04 g
Body weight of mice (g) 25 day ([1]; 160 mg/kg ig × 11 q2*2): 17.97 ± 0.93 g
Animal No. end ([1]; 160 mg/kg ig × 11 q2*2, 8 at beginning): 8/3
Animal weight (g) Beginning ([2]; 120 mg/kg ig × 9 qod): 19 g
Animal weight (g) end ([2]; 120 mg/kg ig × 9 qod): 16.7 g
Body weight of mice (g) 1 day ([2]; 120 mg/kg ig × 9 qod): 19.03 ± 0.76 g
Body weight of mice (g) 4 day ([2]; 120 mg/kg ig × 9 qod): 19.53 ± 0.71 g
Body weight of mice (g) 8 day ([2]; 120 mg/kg ig × 9 qod): 18.24 ± 1.10 g
Body weight of mice (g) 11 day ([2]; 120 mg/kg ig × 9 qod): 18.21 ± 1.02 g
Body weight of mice (g) 16 day ([2]; 120 mg/kg ig × 9 qod): 17.09 ± 1.09 g
Body weight of mice (g) 18 day ([2]; 120 mg/kg ig × 9 qod): 16.71 ± 0.97 g
Animal No. end ([2]; 120 mg/kg ig × 9 qod): 7/7
Animal weight (g) Beginning ([2]; 160 mg/kg ig × 6 q3d): 18.3 g
Animal weight (g) end ([2]; 160 mg/kg ig × 6 q3d): 15.7 g
Body weight of mice (g) 1 day ([2]; 160 mg/kg ig × 6 q3d): 18.37 ± 0.66 g
Body weight of mice (g) 4 day ([2]; 160 mg/kg ig × 6 q3d): 19.10 ± 0.73 g
Body weight of mice (g) 8 day ([2]; 160 mg/kg ig × 6 q3d): 17.33 ± 1.52 g
Body weight of mice (g) 11 day ([2]; 160 mg/kg ig × 6 q3d): 17.15 ± 1.33 g
Body weight of mice (g) 16 day ([2]; 160 mg/kg ig × 6 q3d): 16.43 ± 1.47 g
Body weight of mice (g) 18 day ([2]; 160 mg/kg ig × 6 q3d): 15.73 ± 1.31 g
Animal No. end ([2]; 160 mg/kg ig × 6 q3d): 7/3
mitotic index [5]: 45±3%
TV inhibition rate % T/C ([3]; 120 mg/kg ig × 14 qod): 37.5%
Tumor volume (mm^3) End ([3]; 120 mg/kg ig × 14 qod): 244 ± 105 mm^3
Tumor volume (mm^3) Start ([3]; 120 mg/kg ig × 14 qod): 53.31 ± 24.5 mm^3
Tumor weight (g) x ± SD ([3]; 120 mg/kg ig × 14 qod): 0.25 ± 0.08 g
Tumor inhibition rate % ([3]; 120 mg/kg ig × 14 qod, by tumor weight): 67.8%
TV inhibition rate % T/C ([3]; 160 mg/kg ig × 11 q2*2): 47.9%
Tumor volume (mm^3) End ([3]; 160 mg/kg ig × 11 q2*2): 265 ± 135 mm^3
Tumor volume (mm^3) Start ([3]; 160 mg/kg ig × 11 q2*2): 45.25 ± 15.9 mm^3
Tumor weight (g) x ± SD ([3]; 160 mg/kg ig × 11 q2*2): 0.29 ± 0.11 g
Tumor inhibition rate % ([3]; 160 mg/kg ig × 11 q2*2, by tumor weight): 62.5%

Source: patent US20110207751A1, “HETEROCYCLIC COMPOUNDS AND USES AS ANTICANCER AGENTS” (priority 2010, published 2011)
